Laboratory results: US20100216848A1, “LIQUID PHARMACEUTICAL COMPOSITIONS FOR PARENTERAL ADMINISTRATION OF A SUBSTITUTED AMIDE” (priority 2007, published 2010)

Assays:
[1] = Solubility of Compound I anhydrous Polymorph B in various liquid vehicles (suspension equilibrated at least 24 hours, filtered, HPLC); type: physicochemical; conditions: aqueous with cosolvent or surfactant or cyclodextrin, thermodynamic from solid
Experimental: Solubility determinations were carried out at room temperature unless otherwise specified. Solubility of N-[1S,2S]-3-(4-chlorophenyl)-2-(3-cyanophenyl)-1-methylpropyl]-2-methyl-2-{[5-trifluoromethyl]pyridine-2-yl}oxy}propanamide (Compound I) as anhydrous unsolvated Polymorph B (such as prepared in Preparatory Example 2) was determined by preparing a suspension of anhydrous Polymorph B of Compound I in the solvent system. After equilibration for at least 24 hours, the suspension was filtered and the supernatant was analyzed by HPLC. Chromatography was performed on either a Vydac C18 300 Å 250×4.6 mm 5 μm particle size with in-line Phenomenex Security Guard w/C18 cartridge or on a Polaris C18-Ether columns or on a Polaris C8-Ether columns using 0.1% phosphoric acid in combination with methanol or acetonitrile depending on HPLC conditions. The compound was detected at 220 and 272 nm wavelength and assayed using standard curves. The results are presented below in Table 1, calculated based on mg/g vehicle.

[2] = Aqueous solubility of Compound I; type: physicochemical; conditions: water

- solubility ([1]; 40% H2O, 35% Captisol, 15% glycerol, 10% EtOH, 40% H20, room temperature): 20 µg/mL
- solubility ([1]; 50% H2O, 25% PG, 25% PEG300, 50% H20, room temperature): 70 µg/mL
- solubility ([1]; 90% H2O, 10% glycerol, 90% H20, room temperature): < 1 µg/mL
- solubility ([1]; 94.5% H2O, 0.5% Tween80, 5% EtOH, 94.5% H20, room temperature): 80 µg/mL
- solubility ([1]; 95.5% H2O, 0.5% Tween80, 95.5% H20, room temperature): 80 µg/mL
- solubility ([1]; 97.5% H2O, 2.5% Tween80, 97.5% H20, room temperature): 400 µg/mL
- solubility ([1]; 99.75% H2O, 0.25% Tween80, 99.75% H20, room temperature): 40 µg/mL
- solubility ([1]; 0.5% Tween80, 95.5% Saline, room temperature): 80 µg/mL
- solubility ([1]; 10% EtOH, 90% H2O, room temperature): < 1 µg/mL
- solubility ([1]; 15% glycerol, 10% EtOH, 75% H2O, room temperature): < 1 µg/mL
- solubility ([1]; 25% PEG400, 75% H2O, room temperature): 4 µg/mL
- solubility ([1]; 35% hydroxypropyl beta cyclodextrin, 18% glycerol, 10% EtOH, 37% H20, room temperature): 40 µg/mL
- solubility [2]: < 0.4 µg/mL
SMILES: C[C@H](NC(=O)C(C)(C)Oc1ccc(C(F)(F)F)cn1)[C@@H](Cc1ccc(Cl)cc1)c1cccc(C#N)c1 [Compound I, N-[1S,2S]-3-[(4-chlorophenyl)-2-(3-cyanophenyl)-1-methylpropyl]-2-methyl-2-{[(5-trifluoromethyl)pyridine-2-yl]oxy}propanamide]
